Patent US4254128A, “2-Adamantyl hydrazines and biocidal compositions thereof” (Teva Pharmaceutical Industries Ltd., priority 1977, dated 1981)
Where a name gives a salt, the structure may show the parent alone. Read-outs that look alike come from different tables or passages of the source.

Experiments:
[1] = tested on: HSV-1 (Herpes Simplex); experiment: Inhibition test on HSV replication; format: cell-based
Text: BSC-1 (Green monkey kidney)
**% Inhibition of control infected for some time with same virus PFV with […]

[2] = Toxic limit in the HSV replication test; conditions: monkey, bsc-1 cells
[3] = tested on: Leptospira canicola Kipod 146; experiment: Anti leptospiral activity (minimal inhibition concentration); format: cell-based; conditions: for MIC: Leptospira interrogans, KIPOD146, 240 h; for anti leptospiral activity: summary in words
Experimental: The tests were carried out under the following conditions:
Leptospira: Leptospira canicola Kipod 146
Inoculum: 1-10^5 cells/ml
Incubation time: 10 days, 28° C.
Evaluation: Direct count in dark field microscopy after 4,7 and 10 days.
2 Minimal+0.5% albumin (Pentex)
3 Korthof rich medium with 8% serum.
4 Korthof rich medium with 2% serum.

[4] = tested on: Trypanosoma; experiment: Anti trypanosoma test in vitro; format: cell-based; conditions: for Trypanosoma in vitro activity score: 37° C., scoring as in b (promastigotes); for activity against Trypanosoma: summary in words
Experimental: Trypanosoma in RPM1 medium in vitro at 37° C. Scoring as in b.

[5] = tested on: Leishmania; experiment: Anti leishmania tests, summary; format: cell-based, L. tropica; conditions: summary in words
Experimental: (§1) a. amastigotes in peritoneal exudate cells in Mc Coy's medium in vitro at 37° C.
(§2) b. promastigotes in Mc Coy's medium in vitro at 27° C.

[6] = tested on: L. tropica amastigotes; experiment: Anti leishmania test, amastigotes in peritoneal exudate cells in vitro; format: cell-based; conditions: 37° C.
Experimental: as §1
+++=clearance of all parasites in 24 hours
++=clearance of all parasites in 48 hours
+=clearance of all parasites in 72 hours
±=Partial clearance of parasites in 72 hours or more
-=No activity against parasites.

[7] = tested on: L. tropica promastigotes; experiment: Anti leishmania test, promastigotes in vitro; format: cell-based; conditions: 27° C.
Experimental: as §2
+++=No viable parasites after 24 hours
++=No viable parasites after 48 hours
+=No viable parasites after 72 hours
±=No viable parasites after 96 hours p2 -=viable parasites after 120 hours.

[8] = tested on: albino rats; experiment: Antiparkinson activity (catalepsy produced by haloperidol); format: in vivo, Male Charles River albino rats; conditions: 80 mg/kg i.p.
Experimental: Male Charles River albino rats, weighing 200-250 g, were used. Catalepsy was produced by haloperidol, 5 mg/kg i.p. The animals were placed with their front paws on a horizontal bar, about 10 cm above the ground, and animals were considered cataleptic if not changing posture for at least 30 sec. Cataleptic animals were injected i.p. with one of the drugs at a dose of 40-80 mg/kg. Catalepsy was estimated again at the intervals indicated.

[9] = tested on: albino mice; experiment: Stereotyped behaviour in mice; format: in vivo, Male ICR albino mice; parameters: scale not given here; conditions: 50 mg/kg i.p.
[10] = tested on: albino mice; experiment: Stereotyped behaviour in mice; format: in vivo, Male ICR albino mice; parameters: stereotyped behaviour score / Total Score / Mean Score: scale not given here; conditions: 50 mg/kg i.p.
Experimental: Male ICR albino mice weighing 25-30 g were put in cages with a metal grid floor, 4 in each cage. Drugs were injected intraperitoneally and stereotyped behaviour (sniffing, biting, repetitive head movement) was evaluated every 30 min.

[11] = minimal + Pentex (0.5% albumin)

Compound `NC12CC3CC(CC(C3)C1)C2` [Amant., Amantadine, reference compound] has an inhibition at 50 µg/mL ([1]; Human alphaherpesvirus 1, BSC-1) of 93% and an MNTC [2] of 50 µg/mL.
`CN(C)NC1C2CC3CC(C2)CC1C3` (centres unmarked) [Example 1, 1-(2'-Adamantyl)-2,2-dimethylhydrazine hydrochloride] showed an MIC ([3]; Korthof + 8% serum) of 12.5 µg/mL, an MIC [3, 11] of 12.5 µg/mL and an MIC ([3]; minimal medium) of 12.5 µg/mL. For the same compound, the anti leptospiral activity [3] was “active”.
With `c1ccc(NNC2C3CC4CC(C3)CC2C4)cc1` (centres unmarked) [Example 3, 1-(2'-Adamantyl)-2-phenylhydrazine hydrochloride] the MIC ([3]; Korthof + 8% serum) was 100 µg/mL, the MIC ([3]; minimal medium) was 6.25 µg/mL and the anti leptospiral activity [3] was “active”. The “Trypanosoma in vitro activity score” value ([4]; 10 μg) was “+ (No viable parasites after 72 hours)”, the “Trypanosoma in vitro activity score” value ([4]; 100 μg) was “+++ (No viable parasites after 24 hours)” and the “activity against Trypanosoma” value [4] was “active”.
With `FC(F)(F)c1cccc(NNC2C3CC4CC(C3)CC2C4)c1` (centres unmarked) [Example 6, 1-(2'-Adamantyl)-2-(m-trifluoromethylphenyl)hydrazine hydrochloride] the MIC ([3]; Korthof + 8% serum) was 50 µg/mL, the MIC ([3]; minimal medium) was 12.5 µg/mL and the anti leptospiral activity [3] was “active”.
For `c1ccc(NNC2C3CC4CC(C3)CC2C4)nc1` (centres unmarked) [Example 8, 1-(2'-Adamantyl)-2-(2"-pyridyl)hydrazine hydrochloride], the “activity against Leishmania” value [5] was “active”, the “Trypanosoma in vitro activity score” value ([4]; 10 μg) was “+ (No viable parasites after 72 hours)” and the “Trypanosoma in vitro activity score” value ([4]; 100 μg) was “+++ (No viable parasites after 24 hours)”. For the same compound, the “activity against Trypanosoma” value [4] was “active”, the “Leishmania amastigote activity score” value ([6]; 10 μg) was “+ (clearance of all parasites in 72 hours)” and the “Leishmania amastigote activity score” value ([6]; 100 μg) was “+++ (clearance of all parasites in 24 hours)”.
In the case of `C1CCCN(NC2C3CC4CC(C3)CC2C4)CC1` (centres unmarked) [Example 11, 1-(2'-Adamantylamino)homopiperidine hydrochloride], the “Trypanosoma in vitro activity score” value ([4]; 10 μg) was “+ (No viable parasites after 72 hours)”, the “Trypanosoma in vitro activity score” value ([4]; 100 μg) was “+++ (No viable parasites after 24 hours)” and the “activity against Trypanosoma” value [4] was “active”.
In the case of `CNNC1C2CC3CC(C2)CC1C3` (centres unmarked) [Example 25, 1-(2'-Adamantyl)-2-methylhydrazine hydrochloride], the “activity against Leishmania” value [5] was “active”, the “Leishmania promastigote activity score” value ([7]; 100 μg) was “+++ (No viable parasites after 24 hours)” and the “Leishmania amastigote activity score” value ([6]; 100 μg) was “++ (clearance of all parasites in 48 hours)”.
For `CN(CC(=O)O)NC1C2CC3CC(C2)CC1C3` (centres unmarked) [Example 37, [2-(2'-Adamantyl)-1-methylhydrazino]acetic acid hydrochloride], the MIC ([3]; Korthof + 2% serum) was 12.5 µg/mL, the MIC ([3]; Korthof + 8% serum) was 12.5 to 25 µg/mL and the MIC [3, 11] was 25 µg/mL. The MIC ([3]; minimal medium) was 25 µg/mL and the anti leptospiral activity [3] was “active”.
With `CC(NNC1C2CC3CC(C2)CC1C3)C(=O)O` (stereo not drawn) [Example 38, α-[2-(2'-Adamantyl)hydrazino]propionic acid hydrochloride] the “activity against Leishmania” value [5] was “active”, the “Leishmania promastigote activity score” value ([7]; 10 μg) was “± (No viable parasites after 96 hours)” and the “Leishmania promastigote activity score” value ([7]; 100 μg) was “++ (No viable parasites after 48 hours)”. For the same compound, the “Leishmania amastigote activity score” value ([6]; 100 μg) was “++ (clearance of all parasites in 48 hours)”.
Compound `CNN(C)C1C2CC3CC(C2)CC1C3` (centres unmarked) [Example 49, 1-(2'-Adamantyl)-1,2-dimethylhydrazine hydrochloride] has an inhibition at 50 µg/mL ([1]; Human alphaherpesvirus 1, 50 μg/ml, BSC-1 cells, 10 PFU/cell, read-out: % Inhibition) of 60%, an inhibition at 100 µg/mL ([1]; Human alphaherpesvirus 1, 100 μg/ml, BSC-1 cells, 10 PFU/cell) of 92% and an inhibition at 200 µg/mL ([1]; Human alphaherpesvirus 1, 200 μg/ml, BSC-1 cells, 10 PFU/cell) of 99.9%. The “Trypanosoma in vitro activity score” value ([4]; 100 μg) was “++ (No viable parasites after 48 hours)”, the “activity against Trypanosoma” value [4] was “active” and the MNTC [2] was 100 µg/mL.
In the case of `CC(C)NNC1C2CC3CC(C2)CC1C3` (centres unmarked) [Example 51, 1-(2'-Adamantyl)-2-isopropylhydrazine hydrochloride], the “activity against Leishmania” value [5] was “active”, the “Trypanosoma in vitro activity score” value ([4]; 100 μg) was “+++ (No viable parasites after 24 hours)” and the “activity against Trypanosoma” value [4] was “active”. For the same compound, the “Leishmania amastigote activity score” value ([6]; 10 μg) was “± (Partial clearance of parasites in 72 hours or more)” and the “Leishmania amastigote activity score” value ([6]; 100 μg) was “++ (clearance of all parasites in 48 hours)”.
For `N=C(N)c1ccc(OCCCCCOc2ccc(C(=N)N)cc2)cc1` [Pentamidine, reference compound], the “Trypanosoma in vitro activity score” value ([4]; 100 μg) was “++ (No viable parasites after 48 hours)”, the “Leishmania promastigote activity score” value ([7]; 10 μg) was “+++ (No viable parasites after 24 hours)” and the “Leishmania promastigote activity score” value ([7]; 100 μg) was “+++ (No viable parasites after 24 hours)”.
With `NC12CC3CC(CC(C3)C1)C2` [Symmetrel, reference compound] the anticataleptic effect ([8]; rat 1) was 0/4, the anticataleptic effect ([8]; rat 2) was 2/4 and the anticataleptic effect ([8]; rat 3) was 3/4. The anticataleptic effect ([8]; rat 4) was 3/4, the anticataleptic effect ([8]; rat 5) was 3/4 and the stereotyped behaviour score ([9]; 45 min, mouse 1) was 1. It also gave a stereotyped behaviour score ([9]; 45 min, mouse 2) of 1, a stereotyped behaviour score ([9]; 135 min, mouse 3) of 2 and a stereotyped behaviour score ([9]; 135 min, mouse 4) of 2. The stereotyped behaviour score ([10]; 0 min, mouse 1) was 0, the stereotyped behaviour score ([10]; 0 min, mouse 2) was 0 and the stereotyped behaviour score ([10]; 0 min, mouse 3) was 0. For the same compound, the stereotyped behaviour score ([10]; 0 min, mouse 4) was 0, the stereotyped behaviour score ([10]; 30 min, mouse 1) was 1 and the stereotyped behaviour score ([10]; 30 min, mouse 2) was 1. The stereotyped behaviour score ([10]; 30 min, mouse 3) was 1, the stereotyped behaviour score ([10]; 30 min, mouse 4) was 1 and the stereotyped behaviour score ([10]; 45 min, mouse 3) was 1. It also gave a stereotyped behaviour score ([10]; 45 min, mouse 4) of 1, a stereotyped behaviour score ([10]; 60 min, mouse 1) of 2 and a stereotyped behaviour score ([10]; 60 min, mouse 2) of 2. It also gave a stereotyped behaviour score ([10]; 60 min, mouse 3) of 1, a stereotyped behaviour score ([10]; 60 min, mouse 4) of 1 and a stereotyped behaviour score ([10]; 90 min, mouse 1) of 1. It also gave a stereotyped behaviour score ([10]; 90 min, mouse 2) of 1, a stereotyped behaviour score ([10]; 90 min, mouse 3) of 2 and a stereotyped behaviour score ([10]; 90 min, mouse 4) of 1. The stereotyped behaviour score ([10]; 120 min, mouse 1) was 2, the stereotyped behaviour score ([10]; 120 min, mouse 2) was 2 and the stereotyped behaviour score ([10]; 120 min, mouse 3) was 2. For the same compound, the stereotyped behaviour score ([10]; 120 min, mouse 4) was 2, the stereotyped behaviour score ([10]; 135 min, mouse 1) was 2 and the stereotyped behaviour score ([10]; 135 min, mouse 2) was 2. The stereotyped behaviour score ([10]; 150 min, mouse 1) was 2, the stereotyped behaviour score ([10]; 150 min, mouse 2) was 2 and the stereotyped behaviour score ([10]; 150 min, mouse 3) was 2. The stereotyped behaviour score ([10]; 150 min, mouse 4) was 2, the stereotyped behaviour score ([10]; 180 min, mouse 1) was 2 and the stereotyped behaviour score ([10]; 180 min, mouse 2) was 2. The stereotyped behaviour score ([10]; 180 min, mouse 3) was 2, the stereotyped behaviour score ([10]; 180 min, mouse 4) was 2 and the stereotyped behaviour score ([10]; 210 min, mouse 1) was 2. For the same compound, the stereotyped behaviour score ([10]; 210 min, mouse 2) was 2, the stereotyped behaviour score ([10]; 210 min, mouse 3) was 2 and the stereotyped behaviour score ([10]; 210 min, mouse 4) was 1. It also gave a stereotyped behaviour score ([10]; 240 min, mouse 1) of 2, a stereotyped behaviour score ([10]; 240 min, mouse 2) of 2 and a stereotyped behaviour score ([10]; 240 min, mouse 3) of 2. The stereotyped behaviour score ([10]; 240 min, mouse 4) was 0, the “Mean Score” value ([10]; mean of 4 mice) was 16 and the “Total Score” value ([10]; mouse 1) was 17. For the same compound, the “Total Score” value ([10]; mouse 2) was 17, the “Total Score” value ([10]; mouse 3) was 17 and the “Total Score” value ([10]; mouse 4) was 13.
